According to US20240383856A1 (Zedira GmbH, priority 2021, published 2024):
pIC50: −log10 of the molar value.

What was measured:
[1] = target: T1, recombinant human transglutaminase 2 (Homo sapiens, UniProt P21980); assay: Transglutaminase assay (DCC-assay): incorporation of dansylcadaverine into dimethylcasein; format: biochemical; settings: recombinant human TG2 10 nM; dansylcadaverine incorporation into dimethylcasein; read-out: IC50 TG2
T1 construct: purchased Zedira T022
T1 sequence (P21980 1-687): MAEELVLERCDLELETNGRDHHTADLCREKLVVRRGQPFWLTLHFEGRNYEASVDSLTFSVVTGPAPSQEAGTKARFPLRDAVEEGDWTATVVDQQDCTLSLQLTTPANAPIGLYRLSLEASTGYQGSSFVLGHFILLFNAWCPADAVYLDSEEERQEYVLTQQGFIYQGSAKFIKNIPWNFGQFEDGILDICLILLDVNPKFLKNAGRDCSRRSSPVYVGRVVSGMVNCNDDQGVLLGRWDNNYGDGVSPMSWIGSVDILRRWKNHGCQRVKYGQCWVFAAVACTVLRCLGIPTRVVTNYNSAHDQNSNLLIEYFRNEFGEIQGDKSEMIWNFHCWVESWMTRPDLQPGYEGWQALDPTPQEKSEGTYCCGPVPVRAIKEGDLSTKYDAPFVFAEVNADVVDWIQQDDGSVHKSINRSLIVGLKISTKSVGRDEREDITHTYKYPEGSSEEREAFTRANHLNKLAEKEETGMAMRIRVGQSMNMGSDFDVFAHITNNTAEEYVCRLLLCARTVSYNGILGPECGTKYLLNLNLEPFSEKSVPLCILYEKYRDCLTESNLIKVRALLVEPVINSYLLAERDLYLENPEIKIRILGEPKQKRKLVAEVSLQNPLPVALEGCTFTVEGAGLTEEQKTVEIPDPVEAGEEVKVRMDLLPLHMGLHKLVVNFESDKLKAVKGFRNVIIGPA
In short: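 IC50 is the inhibitor level that blocks 50% of initial activity. Activity is the fluorescence slope (λex 330, λem 500 nm) between 20 and 30 min of a 37 °C run, relative to a 2% DMSO control. The enzyme is recombinant human tissue transglutaminase, 10 nM final, tested against a 1:2 inhibitor dilution series in a pH 8.0 mix with 10 mM CaCl2, 10 mM glutathione, 16.7 µM dansylcadaverine and 4 µM N,N-dimethylcasein.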

[2] = logD by shake flask method (octanol / PBS pH 7.4, HPLC); format: physicochemical; settings: octanol / PBS pH 7.4, shake flask
In short: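 LogD obtained by HPLC measurement of how the compound distributes between PBS (pH 7.4) and octanol in a shake-flask experiment.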

[3] = Caco-2 permeability assay (CacoReady kit); format: in vitro ADME; settings: human, Caco-2, Caco-2 barrier, CacoReady kit; above 1×10^−6 cm/s classified as permeable
In short: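 Compounds are tested on pre-formed Caco-2 barriers supplied as a ready-to-use kit, following the kit protocol, and the Papp value is derived to estimate intestinal absorption.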

| Compound | pIC50 [1] | logD [2] | Papp [3] |
| --- | --- | --- | --- |
| CNC(=O)C(=O)CC[C@H](NC(=O)C1CN2CCC1CC2)C(=O)Nc1cccn(CC(=O)NC2C3CC4CC(C3)CC2C4)c1=O (stereo partly drawn) [II-61, (S)-N1-(1-(2-(2-adamantylamino)-2-oxoethyl)-2-oxo-1,2-dihydropyridin-3-yl)-N6-methyl-5-oxo-2-(quinuclidine-3-carboxamido)hexanediamide] | 6.40 to 7.40 | 1 to 3 | < 1 ×10⁻⁶ cm/s |
| CNC(=O)C(=O)CC[C@H](NC(=O)c1cc(C(=O)OC)cc([N+](=O)[O-])c1)C(=O)Nc1cccn(CC(=O)NC2C3CC4CC(C3)CC2C4)c1=O (stereo partly drawn) [II-62, (S)-methyl 3-(1-(1-(2-(2-adamantylamino)-2-oxoethyl)-2-oxo-1,2-dihydropyridin-3-ylamino)-6-(methylamino)-1,5,6-trioxohexan-2-ylcarbamoyl)-5-nitrobenzoate] | > 7.40 | 1 to 3 | 1 to 10 ×10⁻⁶ cm/s |
| CNC(=O)C(=O)CC[C@H](NC(=O)c1cncc([N+](=O)[O-])c1)C(=O)Nc1cccn(CC(=O)NC2C3CC4CC(C3)CC2C4)c1=O (stereo partly drawn) [II-63, (S)-N1-(1-(2-(2-adamantylamino)-2-oxoethyl)-2-oxo-1,2-dihydropyridin-3-yl)-N6-methyl-2-(5-nitronicotinamido)-5-oxohexanediamide] | > 7.40 | 1 to 3 | < 1 ×10⁻⁶ cm/s |
| CNC(=O)C(=O)CC[C@H](NC(=O)c1cncc(C(=O)O)c1)C(=O)Nc1cccn(CC(=O)NC2C3CC4CC(C3)CC2C4)c1=O (stereo partly drawn) [II-64, (S)-5-(1-(1-(2-(2-adamantylamino)-2-oxoethyl)-2-oxo-1,2-dihydropyridin-3-ylamino)-6-(methylamino)-1,5,6-trioxohexan-2-ylcarbamoyl)nicotinic acid] | 6.40 to 7.40 | 1 to 3 | < 1 ×10⁻⁶ cm/s |
| CNC(=O)C(=O)CC[C@H](NC(=O)c1cncc(C(=O)OC)c1)C(=O)Nc1cccn(CC(=O)NC2C3CC4CC(C3)CC2C4)c1=O (stereo partly drawn) [II-65, (S)-methyl 5-(1-(1-(2-(2-adamantylamino)-2-oxoethyl)-2-oxo-1,2-dihydropyridin-3-ylamino)-6-(methylamino)-1,5,6-trioxohexan-2-ylcarbamoyl)nicotinate] | 6.40 to 7.40 | 1 to 3 | < 1 ×10⁻⁶ cm/s |
| CNC(=O)C(=O)CC[C@H](NC(=O)c1c(C)nc2sccn12)C(=O)Nc1cccn(CC(=O)NC2C3CC4CC(C3)CC2C4)c1=O (stereo partly drawn) [II-66, (S)-N1-(1-(2-(2-adamantylamino)-2-oxoethyl)-2-oxo-1,2-dihydropyridin-3-yl)-N6-methyl-2-(6-methylimidazo[2,1-b]thiazole-5-carboxamido)-5-oxohexanediamide] | 5.60 to 6.40 | 1 to 3 | < 1 ×10⁻⁶ cm/s |
| CNC(=O)C(=O)CC[C@H](NC(=O)c1oc2ccccc2c1C)C(=O)Nc1cccn(CC(=O)N(C)C2C3CC4CC(C3)CC2C4)c1=O (stereo partly drawn) [II-67, (S)-N1-(1-(2-(2-adamantyl(methyl)amino)-2-oxoethyl)-2-oxo-1,2-dihydropyridin-3-yl)-N6-methyl-2-(3-methylbenzofuran-2-carboxamido)-5-oxohexanediamide] | 5.60 to 6.40 | 3 to 5 | 1 to 10 ×10⁻⁶ cm/s |
| CNC(=O)C(=O)CC[C@H](NC(=O)c1oc2ccccc2c1C)C(=O)Nc1cccn(CC(=O)NC2C3CC4CC2CC(O)(C4)C3)c1=O (stereo partly drawn) [II-68, (S)-N1-(1-(2-(5-hydroxyadamantane-2-amino)-2-oxoethyl)-2-oxo-1,2-dihydropyridin-3-yl)-N6-methyl-2-(3-methylbenzofuran-2-carboxamido)-5-oxohexanediamide] | 6.40 to 7.40 | < 1 | < 1 ×10⁻⁶ cm/s |
| CNC(=O)C(=O)CC[C@H](NC(=O)c1oc2ccccc2c1C)C(=O)Nc1cccn(CC(=O)NC2C3CC4CC2CC(F)(C4)C3)c1=O (stereo partly drawn) [II-69, (S)-N1-(1-(2-(5-fluoroadamantane-2-amino)-2-oxoethyl)-2-oxo-1,2-dihydropyridin-3-yl)-N6-methyl-2-(3-methylbenzofuran-2-carboxamido)-5-oxohexanediamide] | > 7.40 | 1 to 3 | 1 to 10 ×10⁻⁶ cm/s |
| CNC(=O)C(=O)CC[C@H](NC(=O)c1oc2ccccc2c1C)C(=O)Nc1cccn(CC(=O)NC2C3CC4CC2CC(Cl)(C4)C3)c1=O (stereo partly drawn) [II-70, (S)-N1-(1-(2-(5-chloroadamantane-2-amino)-2-oxoethyl)-2-oxo-1,2-dihydropyridin-3-yl)-N6-methyl-2-(3-methylbenzofuran-2-carboxamido)-5-oxohexanediamide] | > 7.40 | 1 to 3 | 1 to 10 ×10⁻⁶ cm/s |
| CNC(=O)C(=O)CC[C@H](NC(=O)c1oc2ccccc2c1C)C(=O)Nc1cccn(CC(=O)NC2C3CC4CC2CC(Br)(C4)C3)c1=O (stereo partly drawn) [II-71, (S)-N1-(1-(2-(5-bromoadamantane-2-amino)-2-oxoethyl)-2-oxo-1,2-dihydropyridin-3-yl)-N6-methyl-2-(3-methylbenzofuran-2-carboxamido)-5-oxohexanediamide] | > 7.40 | 1 to 3 | 1 to 10 ×10⁻⁶ cm/s |
| CNC(=O)C(=O)CC[C@H](NC(=O)c1oc2ccccc2c1C)C(=O)Nc1cccn(CC(=O)NC2C3CC4CC2CC(C)(C4)C3)c1=O (stereo partly drawn) [II-72, (S)-N1-(1-(2-(5-methyladamantane-2-amino)-2-oxoethyl)-2-oxo-1,2-dihydropyridin-3-yl)-N6-methyl-2-(3-methylbenzofuran-2-carboxamido)-5-oxohexanediamide] | > 7.40 | 3 to 5 | < 1 ×10⁻⁶ cm/s |
| CNC(=O)C(=O)CC[C@H](NC(=O)c1oc2ccccc2c1C)C(=O)Nc1cccn(CC(=O)NC2(C#N)C3CC4CC(C3)CC2C4)c1=O (stereo partly drawn) [II-73, (S)-N1-(1-(2-(2-carbonitrileadamantane-2-amino)-2-oxoethyl)-2-oxo-1,2-dihydropyridin-3-yl)-N6-methyl-2-(3-methylbenzofuran-2-carboxamido)-5-oxohexanediamide] | 6.40 to 7.40 | 1 to 3 | < 1 ×10⁻⁶ cm/s |
| CNC(=O)C(=O)CC[C@H](NC(=O)c1oc2ccccc2c1C)C(=O)Nc1cccn(CC(=O)NC2(C(=O)OC)C3CC4CC(C3)CC2C4)c1=O (stereo partly drawn) [II-74, (S)-N1-(1-(2-(2-methyladamantane-2-carboxylate-2-amino)-2-oxoethyl)-2-oxo-1,2-dihydropyridin-3-yl)-N6-methyl-2-(3-methylbenzofuran-2-carboxamido)-5-oxohexanediamide] | 5.60 to 6.40 | 1 to 3 | < 1 ×10⁻⁶ cm/s |
| CNC(=O)C(=O)CC[C@H](NC(=O)c1oc2ccccc2c1C)C(=O)Nc1cccn(CC(=O)NCC23CC4CC(CC(C4)C2)C3)c1=O [II-87, (S)-N1-(1-(2-(1-adamantylmethylamino)-2-oxoethyl)-2-oxo-1,2-dihydropyridin-3-yl)-N6-methyl-2-(3-methylbenzofuran-2-carboxamido)-5-oxohexanediamide] | 6.40 to 7.40 | 3 to 5 | 1 to 10 ×10⁻⁶ cm/s |
| CNC(=O)C(=O)CC[C@H](NC(=O)c1cc2ccccc2o1)C(=O)Nc1cccn(CC(=O)NC(C)C23CC4CC(CC(C4)C2)C3)c1=O (stereo partly drawn) [II-88] | 6.40 to 7.40 | 3 to 5 | < 1 ×10⁻⁶ cm/s |
| CNC(=O)C(=O)CC[C@H](NC(=O)c1oc2ccccc2c1C)C(=O)Nc1cccn(CC(=O)N[C@H]2C[C@H]3CC[C@@H]2C3)c1=O [II-90, (S)-N1-(1-(2-((1R,2S,4S)-bicyclo[2.2.1]heptan-2-ylamino)-2-oxoethyl)-2-oxo-1,2-dihydropyridin-3-yl)-N6-methyl-2-(3-methylbenzofuran-2-carboxamido)-5-oxohexanediamide] | 6.40 to 7.40 | 1 to 3 | < 1 ×10⁻⁶ cm/s |
